{"source": "patent US7101844B2", "about": "“Cytoplasmic transduction peptides and uses thereof” (Creagene, Inc., priority 2002, dated 2006)", "key": {"HeLa cells [1]": {"test_system": "HeLa cells", "assay": "Transduction potential of CTP-β-gal following treatment with trypsin (staining)", "format": "cell-based", "conditions": "50 μg/ml, 20 hr, trypsin before fixation", "procedure": "HeLa cells were cultured for 1 day in DMEM (high glucose) at a density of 2×10^5/ml in 48-well plates. Cells were washed once with 1× PBS, and then incubated further for additional 20 hr in OPTI-MEM containing PTD-β-gal, MTS-β-gal, CTP501-β-gal or CTP514-β-gal, respectively, at a concentration of 50 μg/ml. Thereafter, the cells were treated with trypsin-EDTA (10×) for 3 min at 37° C. to remove the CPP-β-gal attached to the cell surface, and then rinsed twice with 1× PBS, followed by fixing with a fixation solution for 10 min at room temperature. After washing twice with 1× PBS, the cells were stained with a staining solution for 2 hr at 37° C. and photographed under a microscope (FIG. 6b)."}, "HeLa cells [2]": {"test_system": "HeLa cells", "assay": "Transduction potential of FITC-labeled peptides by FACS", "format": "cell-based", "conditions": "FITC-labeled peptide", "description": "It has been shown by trypsin treatment that the transduction potential of the peptides known so far is distorted presumably due to the influence of cell fixation (46). Therefore, to verify that the CTP-β-gal of this invention has genuine transduction potential, trypsinization steps were included in the experiments as described above. At this time, since the activity of CTP per se may be affected by its fusion partner β-gal, CTP labeled with fluorescent molecule instead of β-gal was examined for its transduction capacity into cells. HeLa cells were treated with CTP-FITC and then trypsinized prior to harvest. The amounts of the peptides transduced into the cells were measured by FACS (Fluorescence-activated cell sorter) analysis with FACSCalibur (Becton Dickison, USA).\nHeLa cells were inoculated into 12-well plates at a density of 2×10^5/ml and cultured for 1 day at 37° C. […] The cells were washed twice and the fluorescent intensity of each sample was measured by FACS.\nIn order to examine the transduction potential of peptides at different concentrations, cells were treated for 2 hr with peptides with increasing concentrations of peptides, and then trypsinized before examination. The fluorescent intensity in the cells was measured by FACS."}, "[3]": {"test_system": "HeLa, L929, RENCA, Jurkat cell lines and splenocytes", "assay": "Transduction potential of CTP in various cell types", "format": "cell-based, human, mouse", "conditions": "FITC-labeled peptide", "procedure": "The examples described above analyzed the transduction potential solely by the use of HeLa cells. In this Example, the transduction potential of CTP was evaluated with other cell types including mouse cell lines (mouse fibroblast L929 and mouse renal cancer cell line RENCA), human lymphoid T cell line (Jurkat cells) and primary mouse splenocytes."}}, "data": [{"substance": "CTP512: CTP (2G4R8R9R), sequence YGRRARRRRRR; representative CTP used from Example 5-4 on", "values": [{"measurement": "β-gal activity transduced into cells", "setting": "HeLa cells [1]", "value": "much more efficient to transduce β-gal into cells than either PTD or MTS"}, {"measurement": "transduction potential at the same concentrations", "setting": "HeLa cells [2]; 2 hr, trypsinized", "value": "significantly higher transduction potential than either PTD or MTS"}, {"measurement": "transduction potential over time", "setting": "HeLa cells [2]; trypsinized cells, FACS", "value": "higher transduction potential than the PTD in all period of time"}, {"measurement": "transduction potential in various cell types", "setting": "[3]", "value": "highest transduction potential"}]}]}
